Columns and labels:
[1] = tested on: NIH3T3; assay: GSK_TCAKS: pIC50 NIH 3T3 cell line viability assay using luminiscence. Tissue culture surface treated assay plates (1536-well) were used. […] The 100% cells survival control was determined exposing the host-cells to a 0.5% DMSO concentration, whereas the 100% toxicity control was achieved by seeding the cells in presence of Amphotericin B at 50uM. Plates were incubated for four days at 37C, 5% CO2. The assay readout was developed by addition of 5uL of CellTiter-Glo Reagent following the manufacturer's instructions. Luminiscence was measured using a ViewLux.; format: functional, cell-based; conditions: Mus musculus, NIH3T3, 96 h
[2] = tested on: Trypanosoma cruzi; assay: (§1) GSK_TCAKS: pIC50 Trypanosoma cruzi Imaging: Amastigotes/Cell. […] Cells were then washed once with PBS before infection. T. cruzi trypomastigotes, collected at days 5 to 8 after infection from LLC-MK2 parasite infected cultures, were allowed to swim out for 4h at 37C from a centrifuged pellet (2,500 rpm/10 min/room temperature). Trypomastigotes were then collected and counted in a CASY Cell Counter. Trypomastigotes, in supplemented DMEM, were added to H9c2 cultures in a multiplicity of infection of 1 and incubated for 18 h. Cells were washed once with PBS before incubation of the infected H9c2 monolayer with trypsin (Life-Technologies) to detach cells from the flask. Cells were counted in a CASY Cell Counter using a 150 um capillary and their density set at 5 * 10^4 cells per mL in supplemented assay DMEM. Infected H9c2 were dispensed into 384-well poly-lysine coated assay plates at 50uL per well using a Multidrop Combi dispenser. After seeding them, the plates were incubated at 37C, 5% CO2 for 72h. Cultures were then fixed and stained by addition of 50 uL of a solution containing 8% formaldehyde and 4 uM DRAQ5 DNA dye (BioStatus, UK) per well. […] Five images were collected per well for reliable statistical analysis. Automated image analysis was performed with a script developed on Acapella High Content Imaging and Analysis Software (PerkinElmer). Output: number of amastigotes per cell as infection level measurement.; format: functional, organism-based, Rattus norvegicus; conditions: H9c2, 4 h
[3] = molecular target: Sterol 14-alpha demethylase (Trypanosoma cruzi (strain CL Brener), UniProt Q7Z1V1); assay: GSK_TCAKS: pIC50 CYP51 from Trypanosoma cruzi.; format: functional
Sterol 14-alpha demethylase, sequence (Q7Z1V1 whole entry): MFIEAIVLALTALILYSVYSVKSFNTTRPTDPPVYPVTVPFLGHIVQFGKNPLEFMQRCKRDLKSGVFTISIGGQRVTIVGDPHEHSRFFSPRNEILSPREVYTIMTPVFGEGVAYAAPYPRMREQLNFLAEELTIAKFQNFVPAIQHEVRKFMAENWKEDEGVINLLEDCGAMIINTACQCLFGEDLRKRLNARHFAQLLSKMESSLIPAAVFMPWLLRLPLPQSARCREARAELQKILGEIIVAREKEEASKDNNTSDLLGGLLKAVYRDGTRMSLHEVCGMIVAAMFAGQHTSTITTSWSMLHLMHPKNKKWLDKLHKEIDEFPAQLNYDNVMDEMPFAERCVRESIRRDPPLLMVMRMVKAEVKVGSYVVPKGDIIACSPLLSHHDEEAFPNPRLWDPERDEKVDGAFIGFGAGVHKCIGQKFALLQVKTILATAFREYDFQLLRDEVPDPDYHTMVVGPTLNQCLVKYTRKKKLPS

[4] = tested on: Trypanosoma brucei brucei; assay: GSK_TCAKS: pIC50 Trypanosoma brucei viability assay using fluorescence intensity. Assay plates (1536-well) were prepared by dispensing 25nL of compound solution per well using an Echo acoustic dispenser (Labcyte).; format: functional, organism-based; conditions: Lister 427, 2 h
[5] = tested on: Leishmania donovani; assay: GSK_TCAKS: pIC50 Leishmania donovani viability assay using fluorescence intensity. Assay plates (1536-well) were prepared by adding 30nL per well of compound. For single shot assay, the final compound concentration was 5uM. […] Briefly, eGFP LdBOB axenic amastigotes were harvested, fixed and counted in a CASY cell counter (Roche-Applied Science). A final concentration of 1.5 * 10^5 cells per well were prepared in amastigote media containing 500 U/mL penicillin/streptomycin (Invitrogen) and 6uL was dispensed to each experimental well using a Multidrop Combi dispenser (Thermo Scientific). 6uL of assay media was dispensed to control columns used as reference for 100% compound response. Following incubation for 72 h at 37C, 5% CO2, 2 uL of resazurin was added to each well at a final concentration of 0.5 mM in phosphate buffered saline (PBS) with IGEPAL (Sigma-Aldrich), 0.05% (v/v).; format: functional, organism-based
[6] = tested on: Leishmania donovani; assay: (§2) GSK_TCAKS: pIC50 Leishmania donovani Imaging: Infected Macrophages. Assay plates (384-well) were prepared by adding 250nL of compound to each well. For single shot assay, the final compound concentration was 5 uM. […] Automated image analysis was performed with a script developed on Acapella High Content Imaging and Analysis Software (PerkinElmer). Output: Percent of infected macrophage cells were reported for each well.; format: functional, organism-based, Homo sapiens; conditions: THP-1
[7] = GSK_TCAKS: pIC50 HepG2 human cell line viability assay using luminiscence. […] Seeding density was checked to ensure that new mono-layers were not more than 50% confluent at the time of harvesting. Cell suspension was added to 500 mL of the same medium at a final density of 1.2 * 10^5 cells/mL. This cell suspension was dispensed (25 uL, 3000 cells per well) into 384-well clear-bottom plates using a Multidrop Combi dispenser. Prior to addition of the cell suspension, the screening compounds (250 nL) were pre-dispensed into the plates with an Echo liquid handler. Plates were incubated for 48 h at 37C, 5% CO2. After incubation, plates equilibrated at room temperature for 30 min before proceeding to develop the luminescent signal. The signal developer, CellTiter-Glo Reagent, was allowed to equilibrate at room temperature for 30 min and added to the plates (25uL per well) using a Multidrop Combi dispenser. Plates were left for 10 min at room temperature for stabilization and then read using a ViewLux.; format: toxicity, cell-based
[8] = tested on: Trypanosoma cruzi; assay: as §1, with “H2C9” for “Trypanosoma cruzi”, “H9c2 Host Cardiomyocytes.” for “Amastigotes/Cell.”, “Number” for “number”, “H9c2 Host Cardiomyocytes nuclei to determine drug-related cytotoxicity.” for “amastigotes per cell as infection level measurement.”; format: functional, organism-based, Rattus norvegicus; conditions: H9c2, 4 h
[9] = tested on: Trypanosoma cruzi; assay: GSK_TCAKS: pIC50 Trypanosoma cruzi viability assay using beta-GAL activity. This assay was run at single shot at 5uM compound concentration per well. The biological reagents consisted of NIH-3T3 host cells and trypomastigotes parasitic cells; both cell types were set to a 3.3 * 10^5 cells/mL dilution in assay DMEM by means of a CASY cell counter device using a 60um capillary. 6 uL of the mixture were dispensed per well (about 1 * 10^3 host-cells and 1 * 10^3 parasites) with a Multidrop Combi dispenser. […] In all wells, the percentage of DMSO never exceeded 0.5%. Plates incubated for four days at 37C, 5% CO2. The substrate used for the assay fluorescence intensity (FLINT) readout was resorufin-beta-D-galactopiranoside (Sigma-Aldrich) at 5uM per well. It was diluted in PBS supplemented with the soft detergent Igepal (Fluka).; format: functional, organism-based, Mus musculus; conditions: Tulahuen, NIH3T3
[10] = tested on: Leishmania donovani; assay: as §2, with “THP-1 Host” for “Infected”, “THP-1 cell count” for “Percent of infected macrophage cells”; format: functional, organism-based, Homo sapiens
[11] = tested on: Trypanosoma cruzi; assay: GSK_TCAKS: pIC50 Trypanosoma cruzi Imaging: Infected Cells. […] Cells were then washed once with PBS before infection. T. cruzi trypomastigotes, collected at days 5 to 8 after infection from LLC-MK2 parasite infected cultures, were allowed to swim out for 4h at 37C from a centrifuged pellet (2,500 rpm/10 min/room temperature). Trypomastigotes were then collected and counted in a CASY Cell Counter. Trypomastigotes, in supplemented DMEM, were added to H9c2 cultures in a multiplicity of infection of 1 and incubated for 18 h. Cells were washed once with PBS before incubation of the infected H9c2 monolayer with trypsin (Life-Technologies) to detach cells from the flask. Cells were counted in a CASY Cell Counter using a 150 um capillary and their density set at 5 * 10^4 cells per mL in supplemented assay DMEM. Infected H9c2 were dispensed into 384-well poly-lysine coated assay plates at 50uL per well using a Multidrop Combi dispenser. After seeding them, the plates were incubated at 37C, 5% CO2 for 72h. Cultures were then fixed and stained by addition of 50 uL of a solution containing 8% formaldehyde and 4 uM DRAQ5 DNA dye (BioStatus, UK) per well. […] Five images were collected per well for reliable statistical analysis. Automated image analysis was performed with a script developed on Acapella High Content Imaging and Analysis Software (PerkinElmer). Output: percentage of infected cells per well as a second infection marker.; format: functional, organism-based, Rattus norvegicus; conditions: H9c2, 4 h
[12] = tested on: Leishmania donovani; assay: as §2, with “Amastigotes/Macrophages.” for “Infected Macrophages.”, “Average number” for “Percent”, “amastigotes per” for “infected”, “cell” for “cells”; format: functional, organism-based, Homo sapiens; conditions: THP-1
[13] = tested on: Trypanosoma brucei brucei; assay: GSK_TCAKS: pIC50 Trypanosoma brucei viability assay using luminiscence. Assay plates (1536-well) were prepared. T. brucei cultures were harvested and counted in a CASY cell counter. A parasite suspension was prepared at a final concentration of 5 * 10^4 cells/mL in complete HMI9 medium and 6uL was dispensed to all wells containing compounds using a Multidrop Combi dispenser. 6uL of HMI9 media with 0.4% DMSO were dispensed to control columns. Plates were incubated for 24 h at 37C, 5% CO2 then tempered for 10 min at room temperature. ATP content was quantified by adding 4 uL of CellTiter-Glo Reagent (Promega) according to the manufacturer's instructions. Luminescence was measured using a ViewLux.; format: functional, organism-based; conditions: Lister 427, CASY

CCOc1ccc(NC(=O)C=Cc2ccc(CC)o2)cc1
IC50 [1]: 31.6 µM
IC50 [2]: 15.8 µM
IC50 [3]: > 100 µM
IC50 [4]: 15.8 µM
IC50 [5]: 20 µM
IC50 [6]: 50.1 µM
IC50 at 48 h [7]: 79.4 µM
IC50 [8]: > 50.1 µM
IC50 [9]: 2 µM
IC50 [10]: 20 µM
IC50 [11]: 25.1 µM
IC50 [12]: 25.1 µM

COc1cc(NC(=O)Nc2cccc(CNC(=O)OC3CCCCC3)c2)ccc1-c1cnco1
IC50 [1]: 10 µM
IC50 [2]: 31.6 µM
IC50 [3]: 25.1 µM
IC50 [4]: 0.251 µM
IC50 [5]: > 50.1 µM
IC50 [6]: > 50.1 µM
IC50 at 48 h [7]: 39.8 µM
IC50 [8]: 15.8 µM
IC50 [9]: 1 µM
IC50 [10]: 10 µM
IC50 [11]: 25.1 µM
IC50 [12]: 20 µM

CC(C)Nc1nccc(-c2c(-c3ccc(F)cc3)ncn2C2CCOCC2)n1
IC50 [1]: > 50.1 µM
IC50 [2]: 0.2 µM
IC50 [3]: > 100 µM
IC50 [4]: 5.01 µM
IC50 [5]: 25.1 µM
IC50 [6]: 25.1 µM
IC50 at 48 h [7]: > 100 µM
IC50 [8]: > 50.1 µM
IC50 [9]: 0.282 µM
IC50 [10]: > 50.1 µM
IC50 [11]: 0.316 µM
IC50 [12]: 15.8 µM

CN(C)c1ccc(-c2cc3nccnc3c(OC[C@H]3CCCNC3)n2)cn1
IC50 [1]: 15.8 µM
IC50 [2]: 1.58 µM
IC50 [4]: 2 µM
IC50 [5]: > 50.1 µM
IC50 [6]: 20 µM
IC50 at 48 h [7]: 63.1 µM
IC50 [8]: 20 µM
IC50 [9]: 1.58 µM
IC50 [10]: 20 µM
IC50 [11]: > 50.1 µM
IC50 [12]: 25.1 µM

O=c1nc(NCCCNCc2cc(Br)cc(Br)c2)[nH]c2ccsc12
IC50 [2]: 0.398 µM
IC50 [3]: 31.6 µM
IC50 [4]: 0.1 µM
IC50 [5]: 15.8 µM
IC50 [13]: 0.1 µM
IC50 [6]: 5.01 µM
IC50 at 48 h [7]: 50.1 µM
IC50 [8]: 25.1 µM
IC50 [9]: 0.631 µM
IC50 [10]: 15.8 µM
IC50 [11]: 0.631 µM
IC50 [12]: 2.51 µM

O=c1cc(NCCCNCc2c[nH]c3ccc(Br)cc23)[nH]c2ccccc12
IC50 [2]: 31.6 µM
IC50 [3]: > 100 µM
IC50 [4]: 1 µM
IC50 [5]: > 50.1 µM
IC50 [13]: 0.794 µM
IC50 [6]: > 50.1 µM
IC50 at 48 h [7]: > 100 µM
IC50 [8]: > 50.1 µM
IC50 [9]: > 50.1 µM
IC50 [10]: > 50.1 µM
IC50 [11]: > 50.1 µM
IC50 [12]: > 50.1 µM

Cc1cc(Br)sc1CNCCCNc1cc(=O)c2ccccc2[nH]1
IC50 [2]: 0.501 µM
IC50 [3]: 63.1 µM
IC50 [4]: 0.0631 µM
IC50 [5]: > 50.1 µM
IC50 [13]: 0.1 µM
IC50 [6]: 25.1 µM
IC50 at 48 h [7]: 39.8 µM
IC50 [8]: 25.1 µM
IC50 [9]: 1.58 µM
IC50 [10]: 20 µM
IC50 [11]: 0.794 µM
IC50 [12]: 20 µM

O=C(NCC1CCCCN1C(=O)c1cccc2ccccc12)c1ccccc1 (stereo unspecified)
IC50 [2]: 3.16 µM
IC50 [3]: > 100 µM
IC50 [4]: 0.398 µM
IC50 [5]: > 50.1 µM
IC50 [13]: 0.398 µM
IC50 [6]: > 50.1 µM
IC50 at 48 h [7]: > 100 µM
IC50 [8]: > 50.1 µM
IC50 [9]: 6.31 µM
IC50 [10]: > 50.1 µM
IC50 [11]: 5.01 µM
IC50 [12]: > 50.1 µM

O=c1cc(NCCCNCc2cc(C(F)(F)F)cs2)[nH]c2ccccc12
IC50 [2]: 5.01 µM
IC50 [3]: 25.1 µM
IC50 [4]: 0.316 µM
IC50 [5]: > 50.1 µM
IC50 [13]: 0.398 µM
IC50 [6]: 39.8 µM
IC50 at 48 h [7]: 63.1 µM
IC50 [8]: 31.6 µM
IC50 [9]: 7.94 µM
IC50 [10]: 20 µM
IC50 [11]: > 50.1 µM
IC50 [12]: 25.1 µM

COc1ccc2nccc(NC(=O)C3(OC)CCN(CC(O)c4ccc5c(c4)OCCO5)CC3)c2n1 (stereo unspecified)
IC50 [2]: 0.126 µM
IC50 [3]: 1 µM
IC50 [4]: 0.398 µM
IC50 [5]: 10 µM
IC50 [13]: 0.501 µM
IC50 [6]: 20 µM
IC50 at 48 h [7]: 39.8 µM
IC50 [8]: 15.8 µM
IC50 [9]: 0.251 µM
IC50 [10]: 25.1 µM
IC50 [11]: 0.316 µM
IC50 [12]: 6.31 µM

NCc1ccc2c(Cl)cc(Cl)c(O)c2n1
IC50 [2]: 1.26 µM
IC50 [3]: 39.8 µM
IC50 [4]: 0.398 µM
IC50 [5]: 6.31 µM
IC50 [13]: 0.2 µM
IC50 [6]: 2 µM
IC50 at 48 h [7]: 25.1 µM
IC50 [8]: 6.31 µM
IC50 [9]: 2.51 µM
IC50 [10]: 20 µM
IC50 [11]: 2 µM
IC50 [12]: 2 µM

From ChEMBL document CHEMBL3430912, “GSK Tres Cantos Anti-Kinetoplastid Screening (TCAKS) Data”
